According to article PMC10349806 (Nature Communications, 2023):
“And” between values parts separate entries of the source, which are not always exact repeats. Equal entries are not always repeated.

Assays:
PfCRT variant E299A = target: T1, PfCRT variant E299A (Plasmodium falciparum, UniProt Q9N623, A220S/E299A/I356T/K76T/M74I/N326S/N75E/Q271E/R371I); experiment: CQ uptake assay, oocytes expressing E299A; assay type: cell-based
T1 sequence (Q9N623 1-424 M74I/N75E/K76T/A220S/Q271E/E299A/N326S/I356T/R371I): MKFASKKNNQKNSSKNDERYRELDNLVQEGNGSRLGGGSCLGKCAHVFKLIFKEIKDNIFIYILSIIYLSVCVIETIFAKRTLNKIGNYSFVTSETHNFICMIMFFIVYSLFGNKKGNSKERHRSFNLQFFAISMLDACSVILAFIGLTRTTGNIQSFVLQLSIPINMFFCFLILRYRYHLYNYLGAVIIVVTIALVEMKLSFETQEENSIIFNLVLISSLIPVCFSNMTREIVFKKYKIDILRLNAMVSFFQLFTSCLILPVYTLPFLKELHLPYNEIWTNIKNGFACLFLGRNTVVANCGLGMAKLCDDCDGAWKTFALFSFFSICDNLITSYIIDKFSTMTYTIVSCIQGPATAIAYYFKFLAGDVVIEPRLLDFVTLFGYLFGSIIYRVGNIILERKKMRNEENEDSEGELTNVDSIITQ
Procedure: (§1) Site-directed mutagenesis of PfCRT^Dd2 was performed as described using the megaprimer method with overlap extension[21],[54]. The primer pairs used are listed in Supplementary Table 6. Please note that a codon-optimized and oocyte-adapted version of PfCRT^Dd2 was used[22] (Supplementary Fig. 16). The resulting DNA fragment was cloned into the SP64T expression vector and verified by sequencing.
(§2) Oocytes were obtained as described previously. Briefly, adult (>2 years old) female X. laevis frogs (NASCO) were anesthetized in a cooled solution of ethyl 3-amino benzoate methanesulfonate (0.1%, w/v), followed by a surgical removal of parts of the ovary. The ovary lobes were carefully dissected and small pieces of oocytes were incubated in Ca^2+-free ND96 buffer (96 mM NaCl, 2 mM KCl, 1 mM MgCl2 buffered with 5 mM HEPES/NaOH, pH 7.5) supplemented with collagenase D (0.1%, w/v; Roche), BSA (0.5%, w/v), and 9 mm Na2HPO4 at 18 °C for 14-16 h while gentle shaking. After incubation, the oocytes were carefully washed several times with ND96 buffer (96 mM NaCl, 2 mM KCl, 1.8 mM CaCl2, 1 mM MgCl2 buffered with 5 mM HEPES/NaOH, pH 7.5) supplemented with 100 mg l^−1 gentamycin). Defolliculated and healthy-looking stage V-VI oocytes were manually selected for RNA microinjection. The RNA was generated as following: The codon-optimized sequences of PfCRT variants were cloned into the pSP64T expression vector. After vector linearization using the restriction endonucleases BamHI or SalI (New England Biolabs), transcription was performed using the in vitro SP6 mMessage mMachine Kit (Ambion)[34]. The obtained RNA was kept at −80 °C and diluted with nuclease-free water to a concentration of 0.6 μg μl^−1. Precision-bore glass capillary tubes (3.5-inch glass capillaries; Drummond Scientific Co.) were pulled on a vertical puller (P-87 Flaming/Brown micropipette puller, Sutter Instrument Co.), graduated, and placed on a microinjector (Nanoject II Auto-Nanoliter Injector, Drummond Scientific Co.). 50 nl of nuclease-free water alone (control oocytes) or 50 nl of 0.6 μg μl^−1 RNA were injected under stereomicroscopic control. Injected oocytes were incubated for 46–72 h at 18 °C with twice-daily buffer changes before usage in experiments.
Drug uptake assays were performed as described previously[21],[22],[24],[34]. […] The direction of radio-labeled drug transport is here from the mostly acidic extracellular solution (pH 4.5 or 6.0, as indicated) into the oocyte cytosol (pH ∼ 7.2), which corresponds to the efflux of drug from the acidic digestive vacuole (pH 5.2) into the parasite cytoplasm (pH 7.2). The topology of PfCRT in the oolemma is such that both the N- and C-terminus face the extracellular milieu[3],[22]. In the parasite, the N- and C-terminus face the lumen of the digestive vacuole. CQ uptake kinetics were performed by incubating oocytes in ND96 buffer adjusted to a pH of 4.5, 5.0, 5.5, or 6.0 and supplemented with 50 nM [^3H]CQ and one of 7 different CQ concentrations (10 µM, 50 µM, 100 µM, 200 µM, 300 µM, 400 µM, 500 µM CQ). The reaction was stopped at the 60 min time point, which is in the linear uptake range[22],[34] (Supplementary Fig. 17). […] The radioactivity of each sample was measured using a liquid scintillation analyzer Tri-Carb 4910 TR (PerkinElmer). Oocytes that were injected with water instead of RNA were analyzed in parallel, representing the uptake of a drug by diffusion and/or endogenous permeation pathways. […]

PfCRT variant E207K = experiment: CQ uptake assay, oocytes expressing E207K; assay type: cell-based, Plasmodium falciparum
Procedure: as §1, §2
(§3) Drug uptake assays were performed as described previously[21],[22],[24],[34]. […] The direction of radio-labeled drug transport is here from the mostly acidic extracellular solution (pH 4.5 or 6.0, as indicated) into the oocyte cytosol (pH ∼ 7.2), which corresponds to the efflux of drug from the acidic digestive vacuole (pH 5.2) into the parasite cytoplasm (pH 7.2). The topology of PfCRT in the oolemma is such that both the N- and C-terminus face the extracellular milieu[3],[22]. In the parasite, the N- and C-terminus face the lumen of the digestive vacuole. CQ uptake kinetics were performed by incubating oocytes in ND96 buffer adjusted to a pH of 4.5, 5.0, 5.5, or 6.0 and supplemented with 50 nM [^3H]CQ and one of 7 different CQ concentrations (10 µM, 50 µM, 100 µM, 200 µM, 300 µM, 400 µM, 500 µM CQ). The reaction was stopped at the 60 min time point, which is in the linear uptake range[22],[34] (Supplementary Fig. 17). For determination of the amount of drug uptake for each oocyte, the reaction medium was removed and the oocytes were washed three times with 2 ml of ice-cold ND96 buffer. Each oocyte was individually transferred to a scintillation vial containing 5% sodium dodecyl sulfate (200 μl) for lysis. The radioactivity of each sample was measured using a liquid scintillation analyzer Tri-Carb 4910 TR (PerkinElmer). Oocytes that were injected with water instead of RNA were analyzed in parallel, representing the uptake of a drug by diffusion and/or endogenous permeation pathways. The resulting value represents the “background“ level of drug accumulation in oocytes (in-depth discussion in[22]). […]

PfCRT variant R374A = experiment: CQ uptake assay, oocytes expressing R374A; assay type: cell-based, Plasmodium falciparum
Procedure: as §1
as §2, with “Precision-bore glass capillary tubes (3.5-inch glass capillaries; Drummond Scientific Co.) were pulled on a vertical puller (P-87 Flaming/Brown micropipette puller, Sutter Instrument Co.), graduated, and placed on a microinjector (Nanoject II Auto-Nanoliter Injector, Drummond Scientific Co.). 50 nl of nuclease-free water alone (control oocytes) or 50 nl of 0.6 μg μl^−1 RNA were injected under stereomicroscopic control. Injected oocytes were incubated for 46–72 h at 18 °C with twice-daily buffer changes before usage in experiments.” left out
Drug uptake assays were performed as described previously[21],[22],[24],[34]. […] The radioactivity of each sample was measured using a liquid scintillation analyzer Tri-Carb 4910 TR (PerkinElmer). Oocytes that were injected with water instead of RNA were analyzed in parallel, representing the uptake of a drug by diffusion and/or endogenous permeation pathways. […]

PfCRT variant E207V = experiment: CQ uptake assay, oocytes expressing E207V; assay type: cell-based, Plasmodium falciparum
Procedure: as §1, §2, §3

PfCRT variant W280A = experiment: CQ uptake assay, oocytes expressing W280A; assay type: cell-based, Plasmodium falciparum
Procedure: as §1, §2, §3

[1] = E299A, 50 µM CQ, 1 h, mean ± SEM
[2] = pH 4.5, single replicates, Fig 1d left
[3] = pH 6.0, single replicates, Fig 1d left
[4] = E207K, 50 µM CQ, 1 h, mean ± SEM
[5] = pH 4.5, individual replicates, Fig 6b
[6] = pH 6.0, individual replicates, Fig 6b
[7] = ratio of activity pH 4.5 / pH 6.0
[8] = E207V, 50 µM CQ, 1 h, mean ± SEM
[9] = W280A, 50 µM CQ, 1 h, mean ± SEM

## CCN(CC)CCCC(C)Nc1ccnc2cc(Cl)ccc12 (centres unmarked) [CQ, chloroquine]
PfCRT variant E299A; [1]
  Activity at pH 4.5: 1.87 ± 0.19 pmol h-1 oocyte-1
  Activity at pH 6.0: 3.32 ± 0.54 pmol h-1 oocyte-1
PfCRT variant E299A; E299A, CQ transport at pH 4.5 / pH 6.0
  R-value: 0.60 ± 0.12
PfCRT variant E299A; [2]
  E299A transport activity pH 4.5: 2.28 pmol oocyte-1 h-1 and 1.48 pmol oocyte-1 h-1 and 1.84 pmol oocyte-1 h-1
PfCRT variant E299A; [3]
  E299A transport activity pH 6.0: 2.59 pmol oocyte-1 h-1 and 2.74 pmol oocyte-1 h-1 and 4.64 pmol oocyte-1 h-1
PfCRT variant E207K; [4]
  Activity at pH 4.5: 1.91 ± 0.10 pmol h-1 oocyte-1
  Activity at pH 6.0: 2.34 ± 0.24 pmol h-1 oocyte-1
PfCRT variant E207K; E207K, CQ transport at pH 4.5 / pH 6.0
  R-value: 0.83 ± 0.04
PfCRT variant E207K; [5]
  E207K transport activity pH 4.5: 2.09 pmol oocyte-1 h-1 and 1.67 pmol oocyte-1 h-1 and 1.96 pmol oocyte-1 h-1
PfCRT variant E207K; [6]
  E207K transport activity pH 6.0: 2.92 pmol oocyte-1 h-1 and 1.97 pmol oocyte-1 h-1 and 2.13 pmol oocyte-1 h-1
PfCRT variant E207K; [7]
  E207K R-value: 0.72 and 0.85 and 0.92
PfCRT variant R374A; 50 µM CQ, 1 h, mean ± SEM
  Activity at pH 4.5: 0.90 ± 0.14 pmol h-1 oocyte-1
  Activity at pH 6.0: 3.81 ± 0.61 pmol h-1 oocyte-1
PfCRT variant R374A; CQ transport at pH 4.5 / pH 6.0
  R-value: 0.23 ± 0.03
PfCRT variant E207V; [8]
  Activity at pH 4.5: 2.0 ± 0.13 pmol h-1 oocyte-1
  Activity at pH 6.0: 2.09 ± 0.15 pmol h-1 oocyte-1
PfCRT variant E207V; E207V, CQ transport at pH 4.5 / pH 6.0
  R-value: 0.96 ± 0.02
PfCRT variant E207V; [5]
  E207V transport activity pH 4.5: 2.33 pmol oocyte-1 h-1 and 1.85 pmol oocyte-1 h-1 and 1.83 pmol oocyte-1 h-1
PfCRT variant E207V; [6]
  E207V transport activity pH 6.0: 2.45 pmol oocyte-1 h-1 and 1.85 pmol oocyte-1 h-1 and 1.96 pmol oocyte-1 h-1
PfCRT variant E207V; [7]
  E207V R-value: 0.95 and 1.00 and 0.93
PfCRT variant W280A; [9]
  Activity at pH 4.5: 0.92 ± 0.11 pmol h-1 oocyte-1
  Activity at pH 6.0: 2.64 ± 0.28 pmol h-1 oocyte-1
PfCRT variant W280A; W280A, CQ transport at pH 4.5 / pH 6.0
  R-value: 0.35 ± 0.03
PfCRT variant W280A; [2]
  W280A transport activity pH 4.5: 0.97 pmol oocyte-1 h-1 and 0.58 pmol oocyte-1 h-1 and 1.22 pmol oocyte-1 h-1 and 0.92 pmol oocyte-1 h-1
PfCRT variant W280A; pH 4.5 vs pH 6.0, Fig 1d left
  W280A R-value: 0.31 and 0.28 and 0.38 and 0.44
PfCRT variant W280A; [3]
  W280A transport activity pH 6.0: 3.17 pmol oocyte-1 h-1 and 2.06 pmol oocyte-1 h-1 and 3.24 pmol oocyte-1 h-1 and 2.09 pmol oocyte-1 h-1
